Usually IC50 stands for the concentration that inhibits the measured activity by half. Broadly, the Km is the substrate concentration at which the rate is half of its maximum.

The text below walks through data of paper PMC4888459 (Biochemical Journal, 2016).

The target in one data set is agmatine deiminase (AgD) (Listeria monocytogenes, UniProt A0A0H3G8U9). Nature of the data set: IC50, colorimetric. Type of data set: biochemical.
Data set [1] has as its target AgD from S. mutans (agmatine deiminase) (Streptococcus mutans, UniProt Q8DW17). Nature of the data set: IC50 plot. Type of data set: biochemical.
Substrate in the data set “purified protein”: N=C(N)NCCCCN
Nature of the data set: purified protein. Type of data set: biochemical, Listeria monocytogenes. To be noted: active site (Cys356, His216; Asp94 and Asp218 believed to orient the substrate).

AgD from S. mutans (agmatine deiminase), sequence (Q8DW17 whole entry): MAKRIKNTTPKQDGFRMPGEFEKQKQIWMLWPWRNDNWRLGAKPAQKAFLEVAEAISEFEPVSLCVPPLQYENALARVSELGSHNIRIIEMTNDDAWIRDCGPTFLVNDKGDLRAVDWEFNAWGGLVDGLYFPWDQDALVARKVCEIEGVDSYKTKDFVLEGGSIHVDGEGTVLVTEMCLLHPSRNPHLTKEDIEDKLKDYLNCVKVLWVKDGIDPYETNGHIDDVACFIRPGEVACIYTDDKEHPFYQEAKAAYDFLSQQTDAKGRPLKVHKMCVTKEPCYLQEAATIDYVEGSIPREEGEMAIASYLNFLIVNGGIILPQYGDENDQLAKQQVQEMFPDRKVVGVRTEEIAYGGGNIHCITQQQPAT

On agmatine deiminase (AgD), `N=C(CF)NCCCCN` [ABFA, N-(4-aminobutyl)-2-fluoro-ethanimidamide] returned an IC50 of 146 ± 15 µM.

For `N=C(CCl)NCCCCN` [ABCA, N-(4-aminobutyl)-2-chloro-ethanimidamide], the half-maximal inhibitory concentration (IC50) on agmatine deiminase (AgD) is 78.5 ± 1.7 µM.

`N=C(N)CCl` [2-chloroacetamidine] displayed a concentration for half-maximal inhibition (IC50) in data set [1] of 400 ± 100 µM.

B1: agmatine deiminase (AgD) (Listeria monocytogenes 10403S) (protein)
chain: MRTIDSSSKKDGFRMPGEFEKHAGCYIIWPERPDNWRLGAKPAQKAFVDVATAISHFEPVTVVASSSQYVNARYMLSDEIRVVEMDNDDAWVRDSGPTFVVNDSGDVRGVDWSFNSWGGLVDGLYFPWDKDDQVAQKICELERKDRYRLADFVLEGGSIHVDGEGTLVTTEECLLSEGRNPQLSKQQIEMVLKEYLNLEKIIWLKRGIYLDETNGHVDNIFNYVRPGVVALAWTDDETDPQYEISKECFDILSNETDAKGRKLEVHKINVPKPILITDEESKGVDAVEGTLPREEGDRLAASYINYYTANGGVIFPLFGDPNDELAREKLQQLYPNCEVVGVKAREILLGGGNIHCITQQVPRG
Take B1: the Michaelis-Menten constant (Km) in the data set “purified protein” was 330 ± 90.0 µM.
